The target in series [1] is T1, immobilized penicillin G acylase from E. coli (Escherichia coli, UniProt P06875). In words: Enzymatic amoxicillin synthesis with immobilized Pen G acylase and various enzyme modulators (Example 8). The conditions noted are these: standard synthesis conditions; enzyme 13 U/ml. The series is classed as biochemical. An excerpt: (§1) The ratio X is defined as the number of moles of D-HPGA consumed per mole of Amox produced. For practical use this can be transformed to X=1+moles D-HPG/moles Amox, wherein "moles D-HPG" is the molar amount of D-HPG produced by hydrolysis of the acylating agent and the desired product and "moles Amox" is the molar amount of Amox present in the reaction mixture. Thus, if X is 1 this means that only the desired synthesis takes place, no hydrolysis. If X is 2, this means that D-HPG and Amox are formed in equal amounts (on a molar basis). If X is 3, this means that twice as much D-HPG as Amox is present in the reaction mixture (on a molar basis). The ratio X can be calculated at any time during reaction, but in the following examples X is calculated at the reaction stop time, which is defined as the time at which 90 % of the theoretical yield of Amox is present in the reaction mixture (based on the inserted amount of 6-APA). Square brackets are used to designate molar concentrations.
T1 sequence (P06875 27-235): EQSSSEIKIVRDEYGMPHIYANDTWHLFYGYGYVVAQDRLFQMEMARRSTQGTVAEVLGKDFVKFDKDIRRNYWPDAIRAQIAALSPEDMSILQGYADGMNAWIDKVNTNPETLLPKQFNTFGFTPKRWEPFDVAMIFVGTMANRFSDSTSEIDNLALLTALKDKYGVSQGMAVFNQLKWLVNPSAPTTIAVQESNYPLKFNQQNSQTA
T1 sequence (P06875 290-846): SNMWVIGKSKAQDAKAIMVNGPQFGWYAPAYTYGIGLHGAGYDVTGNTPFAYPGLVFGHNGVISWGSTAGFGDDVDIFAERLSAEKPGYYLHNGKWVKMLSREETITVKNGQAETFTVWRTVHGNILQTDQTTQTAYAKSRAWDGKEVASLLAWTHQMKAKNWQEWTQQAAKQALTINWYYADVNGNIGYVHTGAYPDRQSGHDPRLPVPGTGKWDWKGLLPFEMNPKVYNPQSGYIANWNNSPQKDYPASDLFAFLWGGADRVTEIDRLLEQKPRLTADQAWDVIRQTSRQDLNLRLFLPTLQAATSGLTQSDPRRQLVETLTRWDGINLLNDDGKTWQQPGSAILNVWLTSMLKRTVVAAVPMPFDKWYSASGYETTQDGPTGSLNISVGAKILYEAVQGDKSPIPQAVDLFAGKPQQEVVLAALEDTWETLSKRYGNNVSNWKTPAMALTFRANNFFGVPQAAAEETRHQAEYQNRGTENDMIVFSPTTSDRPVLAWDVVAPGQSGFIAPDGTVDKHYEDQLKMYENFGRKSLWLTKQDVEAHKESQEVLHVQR
(§2) In Examples 1-8 the following standard conditions for enzymatic amoxicillin synthesis have been used (see patent application No. WO 92/01061 for further details):
(§3) During the reactions, the pH value of the reaction mixtures was kept constant by titration with 2M sulphuric acid.
(§4) Representative samples of the reaction mixtures including solid constituents were taken at regular intervals during the reactions and analyzed by HPLC.
The compounds listed below improve synthesis performance (standard synthesis conditions, immobilized penicillin G acylase from E. coli; enzyme dosing 13 U/ml) in the sense that when they are present in the reaction mixture in a concentration within the interval specified, synthesis of the desired β-lactam antibiotic is favoured as compared to hydrolysis of the acylating agent: […]

The target in series [2] is T1, immobilized penicillin G acylase from E. coli. In words: Enzymatic amoxicillin synthesis with immobilized Pen G acylase, L-(+)-mandelic acid varied (Example 6). As to conditions: enzyme 12.0 U/ml. It counts as biochemical.
Excerpt: (§5) V0 (Amox) is the initial velocity of Amox formation, and V0 (D-HPG) is the initial velocity of D-HPG formation, specified as μmoles/min/g enzyme, μmoles/min/ml reaction mixture, or nmoles/min/U (enzyme activity).
as §1, §2, §3, §4
A standard synthesis (immobilized penicillin G acylase from E. coli; enzyme dosing 12.0 U/ml) was carried out with no L-(+)-mandelic acid added.
Same conditions as in Experiment A were employed, except that L-(+)-mandelic acid was added to the reaction mixture at the beginning of the experiment in amounts as specified in Table 6. A side product obtained was α-hydroxybenzylpenicillin.

Series [3] shares this target. Kind of series: Enzymatic amoxicillin synthesis with immobilized Pen G acylase, Phox concentration varied (Example 1). It counts as biochemical. The conditions noted are these: enzyme 8.6 U/ml.
Excerpt: as §5, §1, §3, §4

Series [4] addresses T2, agarose based penicillin G acylase immobilizate (Escherichia coli, UniProt P06875).
T2 construct: processed alpha/beta heterodimer cut from one precursor (signal and spacer peptides removed)
Kind of series: Enzymatic amoxicillin synthesis with varying enzyme amounts and constant Phox (Example 4). The series is classed as biochemical. The conditions noted are these: [Phox] 31 μM.
Excerpt: as §5, §1, §3, §4
An agarose based penicillin G acylase immobilizate was employed in the following experiments. The immobilizate which was kept in water was drained of excess water on a filter by applying suction for 1 min.

The target in series [5] is T1, immobilized penicillin G acylase from E. coli. Kind of series: Enzymatic amoxicillin synthesis with immobilized Pen G acylase, Phyl concentration varied (Example 2). The series is classed as biochemical. As to conditions: [Phox] 2.6 μM, enzyme 8.6 U/ml.
Excerpt: as §5, §1, §2, §3, §4
A standard synthesis (immobilized penicillin G acylase from E. coli; enzyme dosing 8.6 U/ml) was carried out with no Phyl added.
Same conditions as in Experiment A were employed, except that Phyl was added to the reaction mixture at the beginning of the experiment in amounts so that the concentrations specified in Table 2 were obtained.

Series [6] has as its target T3, Boehringer Mannheim immobilized penicillin G acylase, experimental preparation (Escherichia coli, UniProt P06875).
T3 construct: purchased Boehringer Mannheim (experimental preparation)
In words: Enzymatic amoxicillin synthesis with immobilized Pen G acylase, 2-thiopheneacetic acid varied (Example 7). The series is classed as biochemical. The conditions noted are these: enzyme 12 U/ml.
Excerpt: as §5, §1, §2, §3, §4
A standard synthesis (Boehringer Mannheim immobilized penicillin G acylase, experimental preparation; enzyme dosing 12 U/ml) was carried out with no 2-thiopheneacetic acid added.
Same conditions as in Experiment A were employed, except that 2-thiopheneacetic acid was added to the reaction mixture at the beginning of the experiment in amounts as specified in Table 7.

A short description of series [7]: Solubility of acylating agent in aqueous system. It counts as physicochemical. As to conditions: aqueous system as used in the examples; dependent on salts, pH, temperature. An excerpt: The solubility of the acylating agent such as the D-phenylglycine or D-p-hydroxyphenylglycine derivative or originating from the D,L mixtures as described in EP-A-339751, will vary with the identity of the derivative and with the composition of the reaction medium. […] However, the solubility is very dependent on the salt components in the solution, as well as on the pH value and the temperature of the solution. In some embodiments of the process of this invention, the initial reaction mixture is a slurry containing undissolved acylating agent and/or amino β-lactam, which will dissolve partly or fully during the course of the reaction. The β-lactam antibiotic formed may precipitate during the reaction and, also, the hydrolysis products of the acylating agent such as D-phenylglycine and D-p-hydroxyphenylglycine, may precipitate.

Setting [8] is: Exp B, [L-(+)-Mandelic acid] 0.64 mM.
The mark [9] stands for this setting: Exp C, [L-(+)-Mandelic acid] 3.3 mM.
[10] abbreviates: Exp D, [L-(+)-Mandelic acid] 6.7 mM.
Where [11] appears, read: Exp E, [L-(+)-Mandelic acid] 13.3 mM.
[12] abbreviates: Exp F, [L-(+)-Mandelic acid] 14.2 mM.
[13] abbreviates: Exp G, [L-(+)-Mandelic acid] 36.1 mM.
Where [14] appears, read: Exp A, [Phox] 2.6 μM (residual, none added).
The mark [15] stands for this setting: Exp B, [Thiopheneacetic acid] 0.03 mM.
Setting [16] is: Exp C, [Thiopheneacetic acid] 0.3 mM.

Where a name gives a salt, the structure may show the parent alone.

T2 sequence (P06875 290-846): as above
T2 sequence (P06875 27-235): as the sequence (P06875 27-235) above
T3 sequence (P06875 27-235): as above
T3 sequence (P06875 290-846): as the sequence (P06875 290-846) above

Regarding `O=[N+]([O-])c1ccc(O)c(CBr)c1` [2-Hydroxy-5-nitrobenzyl bromide], the “Concentration interval where improvement of ratio X is found” value in series [1] fell in the range of 10 to 500 µM.

As for `O=C(O)CSc1ccccc1` [(Phenylthio)acetic acid], the “Concentration interval where improvement of ratio X is found” value in series [1] was 2 to 1000 µM.

Regarding `O=C(O)[C@@H](O)c1ccccc1` [L-(+)-Mandelic acid, L-(+)-mandelic acid], the “Initial velocity V0 (Amox)” value in series [2] (setting [8]) came to 156 nmoles/min/U; in series [2] (setting [9]), 137 nmoles/min/U; in series [2] (setting [10]), 119 nmoles/min/U; in series [2] (setting [11]), 89 nmoles/min/U; in series [2] (setting [12]), 80 nmoles/min/U; in series [2] (setting [13]), 49 nmoles/min/U. For the same compound, the “Initial velocity V0 (D-HPG)” value in series [2] (setting [8]) is 207 nmoles/min/U; in series [2] (setting [9]) it was 174 nmoles/min/U; in series [2] (setting [10]) it was 146 nmoles/min/U; in series [2] (setting [11]) it was 110 nmoles/min/U; in series [2] (setting [12]) it was 106 nmoles/min/U; in series [2] (setting [13]), 68 nmoles/min/U. Besides, the Reaction stop time in series [2] (setting [8]) was 2.4 h; in series [2] (setting [9]), 2.8 h; in series [2] (setting [10]), 3.0 h; in series [2] (setting [11]), 4.7 h; in series [2] (setting [12]), 4.2 h; in series [2] (setting [13]), 5.5 h. In addition, the “X at reaction stop time” value in series [2] (setting [8]) stood at 2.9; in series [2] (setting [9]), 2.8; in series [2] (setting [10]) it was 2.65; in series [2] (setting [11]) it was 2.65; in series [2] (setting [12]) it was 2.8; in series [2] (setting [13]), 2.8. In addition, the “optimal concentration with respect to minimization of the ratio X” value in series [2] (under the conditions chosen) was in the range of 3.3 to 14.2 mM.

For `CC1(C)[C@H](C(=O)O)N2C(=O)[C@@H](NC(=O)Cc3ccccc3)[C@H]2[S+]1[O-]` (stereo partly drawn) [Penicillin G sulfoxide], in series [1], the “Concentration interval where improvement of ratio X is found” value lay within 2 to 500 µM.

For the compound `CC1(C)S[C@@H]2[C@H](NC(=O)Cc3ccccc3)C(=O)N2[C@H]1C(=O)O` [Penicillin G], in series [1], the “Concentration interval where improvement of ratio X is found” value lay in the range of 2 to 1000 µM.

Take `CC1(C)S[C@@H]2[C@H](NC(=O)COc3ccccc3)C(=O)N2[C@H]1C(=O)O` [Penicillin V]: the “Concentration interval where improvement of ratio X is found” value in series [1] is listed as 2-1000 μm.

With `O=S(=O)(F)Cc1ccccc1` [Phenylmethylsulfonyl fluoride], in series [1], the “Concentration interval where improvement of ratio X is found” value fell in the range of 0.2 to 10 µM.

As for `O=C(O)COc1ccccc1` [Phox, phenoxyacetic acid], the “Initial velocity V0 (Amox)” value in series [3] (setting [14]) is 17.7 µmol/min/g; in series [3] (Exp B, [Phox] 9.9 μM), 13.1 µmol/min/g; in series [3] (Exp C, [Phox] 16.8 μM), 11.9 µmol/min/g; in series [3] (Exp D, [Phox] 31.0 μM), 8.8 µmol/min/g; in series [3] (Exp E, [Phox] 61.7 μM), 6.5 µmol/min/g; in series [4] (Exp A, enzyme dosage 11.9 U/ml) it was 1.17 µmol/min/mL. The “Initial velocity V0 (Amox)” value in series [4] (Exp B, enzyme dosage 23.8 U/ml) was determined as 2.97 µmol/min/mL. In addition, the “Initial velocity V0 (D-HPG)” value was determined as 25.0 µmol/min/g in series [3] (setting [14]); 16.5 µmol/min/g in series [3] (Exp B, [Phox] 9.9 μM); 13.8 µmol/min/g in series [3] (Exp C, [Phox] 16.8 μM); 8.8 µmol/min/g in series [3] (Exp D, [Phox] 31.0 μM); 5.4 µmol/min/g in series [3] (Exp E, [Phox] 61.7 μM); 1.85 µmol/min/mL in series [4] (Exp B, enzyme dosage 23.8 U/ml). Besides, the “Initial velocity V0 (D-HPG)” value in series [4] (Exp C, enzyme dosage 47.5 U/ml) was “ca. 5.6 μmoles/min/ml”. Also, the Reaction stop time is listed as 2.1 h in series [3] (setting [14]); 3.3 h in series [3] (Exp B, [Phox] 9.9 μM); 4.1 h in series [3] (Exp C, [Phox] 16.8 μM); 5.7 h in series [3] (Exp D, [Phox] 31.0 μM); 9.5 h in series [3] (Exp E, [Phox] 61.7 μM). The “X at reaction stop time” value was 2.9 in series [3] (setting [14]); 2.7 in series [3] (Exp B, [Phox] 9.9 μM); 2.55 in series [3] (Exp C, [Phox] 16.8 μM); 2.35 in series [3] (Exp D, [Phox] 31.0 μM). In addition, the “X at stop time” value was 1.75 in series [4] (Exp A, enzyme dosage 11.9 U/ml) and “ca. 2.0” in series [4] (Exp C, enzyme dosage 47.5 U/ml).

As to `O=C(O)Cc1ccccc1` [Phyl, phenylacetic acid], in series [5] (Exp B, [Phyl] 32.9 μM), the “Initial velocity V0 (Amox)” value worked out at 10.8 µmol/min/g, the “Initial velocity V0 (D-HPG)” value was 13.8 µmol/min/g, the Reaction stop time is recorded as 4.2 h and the “X at reaction stop time” value is 2.7. For the same compound, in series [5] (Exp C, [Phyl] 63.3 μM), the “Initial velocity V0 (Amox)” value was determined as 8.1 µmol/min/g, the “Initial velocity V0 (D-HPG)” value is 8.8 µmol/min/g, the Reaction stop time was determined as 5.1 h and the “X at reaction stop time” value is on record as 2.5. Moreover, in series [5] (Exp D, [Phyl] 127 μM), the “Initial velocity V0 (Amox)” value came out at 5.2 µmol/min/g, the “Initial velocity V0 (D-HPG)” value is 5.4 µmol/min/g, the Reaction stop time was 5.8 h and the “X at reaction stop time” value is on record as 2.2.

As to `O=C(O)Cc1cccs1` [Thiopheneacetic acid, 2-thiopheneacetic acid], in series [6] (setting [15]), the “Initial velocity V0 (Amox)” value was determined as 1.68 µmol/min/mL, the “Initial velocity V0 (D-HPG)” value came out at 1.95 µmol/min/mL, the Reaction stop time is 2.3 h and the “X at reaction stop time” value came to 2.7. Besides, in series [6] (setting [16]), the “Initial velocity V0 (Amox)” value was 0.15 µmol/min/mL, the “Initial velocity V0 (D-HPG)” value was 0.058 µmol/min/mL, the Reaction stop time came out at 12 h and the “X at reaction stop time” value came out at 1.6.

`NC(=O)[C@H](N)c1ccccc1` [hydrochloride of D-phenylglycine amide, D-phenylglycine amide]: the solubility entry in series [7] is “approximately 450 mM”.

Turning to `O=C(O)COc1ccc(O)cc1` [p-Hydroxyphenoxyacetic acid], the “Concentration interval where improvement of ratio X is found” value in series [1] lay within 2 to 500 µM.

The record behind these values is patent publication US5753458A, “Acylation method for penicillins and cephalosporins” (Gist-Brocades B.V., priority 1994, dated 1998).
